pIC50: −log10 of the molar value. Converted amounts (≈) assume the structure as drawn.

The target of data set [1] is T1, Caspase-8 (Homo sapiens, UniProt Q14790).
T1 construct: purchased BioVision K158-100
The experiment in a line: Caspase-8 Inhibitor Screening Kit (BioVision), fluorogenic substrate. The class given is biochemical. The settings on record: 30 min preincubation at 37° C., substrate 50 μM; read-out: Caspase-8 enzymatic activity (IC50). Here is the method:
(§1) Caspase Inhibitor Screening Kit for BioVision was used in this experiment to test the inhibitory activity of the test compound on Caspase.
(§2) • 1) Kit: • Caspase-1 Inhibitor Screening Kit (BioVision #K151-100) • Caspase-3 Inhibitor Screening Kit (BioVision #K153-100) • Caspase-8 Inhibitor Screening Kit (BioVision #K158-100) • Wherein, each caspase enzymatic experiment uses the reagents in corresponding kit thereof. Each enzyme was dissolved in 550 μl of the corresponding 2× reaction buffer, sub-packed and stored at −80° C., respectively. • 2) Black 384-well plate (PerkinElmer #6007279) • 3) Instrument: Multi-function microplate reader Molecular Devices (Model: SpectraMax M2e) Experimental Method: • 1) The compound of formula I-A was diluted to a 200* test concentration with DMSO via the multiple dilution, then to a 2* test concentration with ddH2O, and added to a 384-well experimental plate at 12.5 μl per well. […] After the substrate was added, the 384-well experimental plate was incubated at 37° C. for 30 minutes. • 4) The fluorescence intensity (excitation light wavelength was 400 nm, emission light wavelength was 505 nm) was measured by using a multi-function microplate reader. Fluorescence intensity was used to calculate the inhibitory effect of the compounds on Caspase. […]

Data set [2] has as its target T2, Caspase-1 (Homo sapiens, UniProt P29466).
T2 construct: purchased BioVision K151-100
T2 sequence (P29466 120-297 limits assumed): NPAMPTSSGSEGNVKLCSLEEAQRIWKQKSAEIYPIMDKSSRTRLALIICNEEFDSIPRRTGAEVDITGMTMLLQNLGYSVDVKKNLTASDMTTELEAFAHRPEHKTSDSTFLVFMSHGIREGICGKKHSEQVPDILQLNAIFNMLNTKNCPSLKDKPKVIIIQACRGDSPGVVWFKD
T2 sequence (P29466 317-404 limits assumed): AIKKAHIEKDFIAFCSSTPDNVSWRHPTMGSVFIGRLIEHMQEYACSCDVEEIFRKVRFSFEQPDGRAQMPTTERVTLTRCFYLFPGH
The experiment in a line: Caspase-1 Inhibitor Screening Kit (BioVision), fluorogenic substrate. The class given is biochemical. The settings on record: 30 min preincubation at 37° C., substrate 50 μM; read-out: Caspase-1 enzymatic activity (IC50). Here is the method:
as §1, §2

Data set [3] deals with T3, Caspase-3 (Homo sapiens, UniProt P42574).
T3 construct: purchased BioVision K153-100
T3 sequence (P42574 29-175 limits assumed): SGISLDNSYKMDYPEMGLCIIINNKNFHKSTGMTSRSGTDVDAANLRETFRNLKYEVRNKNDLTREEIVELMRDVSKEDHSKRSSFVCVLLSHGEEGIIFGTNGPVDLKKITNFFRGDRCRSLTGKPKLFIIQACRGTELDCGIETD
T3 sequence (P42574 176-277 limits assumed): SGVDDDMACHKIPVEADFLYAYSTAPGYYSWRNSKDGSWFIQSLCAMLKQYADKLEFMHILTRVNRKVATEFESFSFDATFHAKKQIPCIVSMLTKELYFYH
The experiment in a line: Caspase-3 Inhibitor Screening Kit (BioVision), fluorogenic substrate. It is filed as biochemical. The settings on record: 30 min preincubation at 37° C., substrate 50 μM; read-out: Caspase-3 enzymatic activity (IC50). The method, then:
as §1, §2

Data set [4] is described as follows: Solubility test of crystal IV in different pH medium solutions. The class given is physicochemical. The following applies: thermodynamic from solid, 37° C. The method, then:
2 ml of pH medium solutions were transferred into 4 ml glass bottle respectively, and then 8 mg of crystal IV of the compound of formula I-A was added thereto. It was stirred and heated on a magnetic stirrer, and the temperature was kept at 37° C. After 4 hours and 24 hours, 1 mL of sample was taken and centrifuged rapidly, respectively. The pH value of the supernatant was determined, and the supernatant was diluted with diluent. The concentration was determined by HPLC.

The nature of data set [5]: Solid stability test of crystal IV (temperature, humidity, light; HPLC impurities). It is filed as physicochemical. Here is the method:
8 mg of crystal IV of the compound of formula I-A was taken, weighed accurately, placed in the sample vial and spread into a thin layer. The samples at day 0 were sealed with the bottle cap and further sealed with the sealing film, followed by storing in the refrigerator at −20° C. The stability of the samples was tested under 60° C., 92.5% RH, 25° C./60% RH, 40° C./75% RH, 60° C./75% RH and light conditions, respectively.
Analysis method: Agilent 1260 High Performance Liquid Chromatography equipped with DAD detector or Waters 2695 High Performance Liquid Chromatography equipped with PDA detector was used; chromatographic column: Waters Xselect CSH C18 (4.6 mm×150 mm, 3.5 μm), column temperature: 40° C., flow rate: 1.0 ml/min, detection wavelength: 215 nm, injection volume: 10 μL, sample concentration: 0.5 mg/mL, diluent: methanol, and the gradient of mobile phases in Table 9 was used for analysis.

[6] abbreviates: aqueous buffer, pH = 4.5 Buffer, supernatant pH 4.67.
Setting [7] is: aqueous buffer, pH = 5.5 Buffer, supernatant pH 5.55.
Where [8] appears, read: aqueous buffer, pH = 6.0 Buffer, supernatant pH 6.04.

T1 sequence (Q14790 217-374 limits assumed): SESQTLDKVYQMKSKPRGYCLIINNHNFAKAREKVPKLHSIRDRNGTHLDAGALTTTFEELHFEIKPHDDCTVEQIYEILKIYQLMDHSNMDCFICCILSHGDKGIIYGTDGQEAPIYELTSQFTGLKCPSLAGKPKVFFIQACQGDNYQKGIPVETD
T1 sequence (Q14790 385-479 limits assumed): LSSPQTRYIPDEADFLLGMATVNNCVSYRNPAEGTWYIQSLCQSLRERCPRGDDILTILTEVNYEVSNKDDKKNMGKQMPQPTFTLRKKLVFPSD

By pIC50 is commonly meant the IC50 on a negative log10 scale, so that one unit is a factor of ten. As to `C[C@H](NC(=O)c1cc(-c2ccccc2Cl)on1)C(=O)N[C@@H](CC(=O)O)C(=O)COc1c(F)c(F)cc(F)c1F` [Compound of formula I-A, (S)-3-((S)-2-(5-(2-chlorophenyl)isoxazol-3-carboxamido)propionamido)-4-oxo-5-(2,3,5,6-tetrafluorophenoxy)pentanoic acid], the figures for the pIC50 in data set [1], in data set [2] and in data set [3] were 7.99, 8.34 and 7.89, respectively.
The term solubility denotes the dissolved amount per volume that the medium holds. A high value points to a readily soluble substance. For the compound `C[C@H](NC(=O)c1cc(-c2ccccc2Cl)on1)C(=O)N[C@@H](CC(=O)O)C(=O)COc1c(F)c(F)cc(F)c1F` [crystal IV, (S)-3-((S)-2-(5-(2-chlorophenyl)isoxazol-3-carboxamido)propionamido)-4-oxo-5-(2,3,5,6-tetrafluorophenoxy)pentanoic acid], the solubility at 4 h in data set [4] (0.01 N HCl buffer, simulated gastric fluid, 0.01N of HCl Buffer, supernatant pH 2.01) is 5 µg/mL (≈ 8.74 µM); in data set [4] (0.1 N HCl buffer, simulated gastric fluid, 0.1N of HCl Buffer, supernatant pH 1.07), 5 µg/mL (≈ 8.74 µM); in data set [4] (aqueous buffer, pH = 3.8 Buffer, supernatant pH 3.97) it was 7 µg/mL (≈ 12.2 µM); in data set [4] (setting [6]), 16 µg/mL (≈ 28 µM); in data set [4] (setting [7]), 268 µg/mL (≈ 469 µM); in data set [4] (setting [8]), 372 µg/mL (≈ 651 µM). Further, the solubility at 4 h was 775 µg/mL (≈ 1360 µM) in data set [4] (aqueous buffer, pH = 6.8 Buffer, supernatant pH 6.71); 1700 µg/mL (≈ 2970 µM) in data set [4] (aqueous buffer, pH = 7.4 Buffer, supernatant pH 7.28); 339 µg/mL (≈ 593 µM) in data set [4] (Water, supernatant pH 7.83). The solubility at 24 h is 6 µg/mL (≈ 10.5 µM) in data set [4] (0.01 N HCl buffer, simulated gastric fluid, 0.01N of HCl Buffer, supernatant pH 2.07); 6 µg/mL (≈ 10.5 µM) in data set [4] (0.1 N HCl buffer, simulated gastric fluid, 0.1N of HCl Buffer, supernatant pH 1.11); 8 µg/mL (≈ 14 µM) in data set [4] (aqueous buffer, pH = 3.8 Buffer, supernatant pH 3.99); 16 µg/mL (≈ 28 µM) in data set [4] (setting [6]); 254 µg/mL (≈ 444 µM) in data set [4] (setting [7]); 340 µg/mL (≈ 595 µM) in data set [4] (setting [8]). Besides, the solubility at 24 h in data set [4] (aqueous buffer, pH = 7.4 Buffer, supernatant pH 7.24) amounted to 1620 µg/mL (≈ 2830 µM); in data set [4] (pH 6.7, aqueous buffer, pH = 6.8 Buffer, supernatant pH 6.70), 702 µg/mL (≈ 1230 µM); in data set [4] (Water, supernatant pH 7.34) it was 266 µg/mL (≈ 465 µM). For the same compound, the Appearance entry in data set [5] (25° C./60% RH, 10 days) is “White solid powder”; in data set [5] (40° C./75% RH, 10 days), “White solid powder”; in data set [5] (60° C./75% RH, 10 days), “White solid powder”. Also, the “Total Impurities (%)” value is listed as 0.20% in data set [5] (25° C./60% RH, 10 days); 0.19% in data set [5] (40° C./75% RH, 10 days); 0.48% in data set [5] (60° C./75% RH, 10 days). The Property entry in data set [5] (25° C./92.5% Relative Humidity (Exposure)), in data set [5] (60° C. (Exposure)) and in data set [5] (Light) was “White solid” throughout. Besides, the Crystal entry in data set [5] (crystal form after 25° C./60% RH, 10 days) was “Crystal IV”; in data set [5] (crystal form after 25° C./92.5% Relative Humidity (Exposure)) it was “Crystal IV”; in data set [5] (crystal form after 40° C./75% RH, 10 days), “Crystal IV”; in data set [5] (crystal form after 60° C. (Exposure)), “Crystal IV”; in data set [5] (crystal form after 60° C./75% RH, 10 days) it was “Crystal IV”; in data set [5] (crystal form after Light) it was “Crystal IV”. In data set [5] (high temperature and high humidity conditions (summary of Table 10)), this compound came in with a total impurities produced not above 0.5%. In data set [5] (summary of Table 10), the “stability under high temperature and high humidity conditions” value is “stable”. Besides, in data set [5] (summary of Table 11), the hygroscopicity entry is given as “low hygroscopicity”. Further, the “stability under high temperature and light conditions” value in data set [5] (summary of Table 11) is “good stability”.

Values taken from patent publication US11091450B2, “Crystal of a caspase inhibitor” (Chia Tai Tianqing Pharmaceutical Group Co., Ltd., priority 2018, dated 2021).
